In the supplement of paper PMC4862054:

How the values were obtained:
Details in all cases: incubation time: 72 h
BT-549 [1] = experiment: drug sensitivity score (DSS), CellTox Green (DSS (AUC-based score)); higher = stronger drug effect (viability inhibition or cytotoxicity); extreme values may be limits of the assay
Method in brief: (§1)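 Each compound occupied 5 concentrations in 10-fold steps over its own 10,000-fold range in 384-well plates, into which breast cancer cell lines were seeded as 20 µl suspension. Following 72 h of incubation, CellTox Green fluorescence (485/520 nm) was measured, and CellTiter-Glo luminescence was measured after 10 min at room temperature. Plates were individually normalised to 0.1 % DMSO and a positive kill control. From the area under the fitted dose-response curve, a drug sensitivity score was calculated.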

MFM-223 [2] = experiment: as above
Method in brief: as §1

MDA-MB-468 = experiment: as above
Method in brief: as §1

CAL-148 [3] = experiment: as above
Method in brief: as §1

MCF-10A [4] = experiment: as above
Method in brief: as §1

MDA-MB-231 [5] = experiment: as above
Method in brief: as §1

CAL-85-1 = experiment: as above
Method in brief: as §1

MDA-MB-453 = experiment: as above
Method in brief: as §1

HCC1599 = experiment: as above
Method in brief: as §1

BT-474 = experiment: as above
Method in brief: as §1

HCC1143 [6] = experiment: as above
Method in brief: as §1

CAL-120 [7] = experiment: as above
Method in brief: as §1

DU-4475 [8] = experiment: as above
Method in brief: as §1

HDQ-P1 = experiment: as above
Method in brief: as §1

CAL-51 = experiment: as above
Method in brief: as §1

MDA-MB-436 [9] = experiment: as above
Method in brief: as §1

BT-549 [10] = experiment: drug sensitivity score (DSS), CellTiter-Glo (DSS (AUC-based score)); higher = stronger drug effect (viability inhibition or cytotoxicity); extreme values may be limits of the assay
Method in brief: as §1

MFM-223 [11] = experiment: as above
Method in brief: as §1

SK-BR-3 = experiment: as above
Method in brief: as §1

CAL-148 [12] = experiment: as above
Method in brief: as §1

MCF-10A [13] = experiment: as above
Method in brief: as §1

MDA-MB-231 [14] = experiment: as above
Method in brief: as §1

HCC1143 [15] = experiment: as above
Method in brief: as §1

CAL-120 [16] = experiment: as above
Method in brief: as §1

DU-4475 [17] = experiment: as above
Method in brief: as §1

Hs578T = experiment: as above
Method in brief: as §1

MDA-MB-436 [18] = experiment: as above
Method in brief: as §1

C#Cc1cccc(Nc2ncnc3cc(OC)c(OCCCCCCC(=O)NO)cc23)c1 [CUDC-101]
drug sensitivity score (BT-549 [1]): 0
drug sensitivity score (MFM-223 [2]): 5.86
drug sensitivity score (MDA-MB-468): 13
drug sensitivity score (CAL-148 [3]): 8.84
drug sensitivity score (MCF-10A [4]): 1.27
drug sensitivity score (MDA-MB-231 [5]): 12.7
drug sensitivity score (CAL-85-1): 20.1
drug sensitivity score (MDA-MB-453): 4.37
drug sensitivity score (HCC1599): 0
drug sensitivity score (BT-474): 6.29
drug sensitivity score (HCC1143 [6]): 0
drug sensitivity score (CAL-120 [7]): 3.78
drug sensitivity score (DU-4475 [8]): 2.65
drug sensitivity score (HDQ-P1): 0
drug sensitivity score (CAL-51): 6.83
drug sensitivity score (MDA-MB-436 [9]): 5.42
drug sensitivity score (BT-549 [10]): 9
drug sensitivity score (MFM-223 [11]): 15
drug sensitivity score (SK-BR-3): 14.6
drug sensitivity score (CAL-148 [12]): 10.1
drug sensitivity score (MCF-10A [13]): 17.5
drug sensitivity score (MDA-MB-231 [14]): 13.1
drug sensitivity score (HCC1143 [15]): 11.1
drug sensitivity score (CAL-120 [16]): 5.5
drug sensitivity score (DU-4475 [17]): 9.19
drug sensitivity score (Hs578T): 8.01
drug sensitivity score (MDA-MB-436 [18]): 6.33

O=c1[nH]c(=O)n([C@H]2C[C@H](O)[C@@H](CO)O2)cc1F [Floxuridine]
drug sensitivity score (BT-549 [1]): 0
drug sensitivity score (MDA-MB-468): 0
drug sensitivity score (CAL-148 [3]): 0
drug sensitivity score (MCF-10A [4]): 0
drug sensitivity score (MDA-MB-231 [5]): 0
drug sensitivity score (CAL-85-1): 4.11
drug sensitivity score (MDA-MB-453): 0
drug sensitivity score (HCC1599): 0
drug sensitivity score (BT-474): 0
drug sensitivity score (HCC1143 [6]): 0
drug sensitivity score (CAL-120 [7]): 0
drug sensitivity score (DU-4475 [8]): 0
drug sensitivity score (HDQ-P1): 1.01
drug sensitivity score (CAL-51): 5.94
drug sensitivity score (MDA-MB-436 [9]): 0
drug sensitivity score (BT-549 [10]): 1.93
drug sensitivity score (MFM-223 [11]): 0
drug sensitivity score (SK-BR-3): 12
drug sensitivity score (CAL-148 [12]): 0
drug sensitivity score (MCF-10A [13]): 0
drug sensitivity score (MDA-MB-231 [14]): 4.12
drug sensitivity score (HCC1143 [15]): 0
drug sensitivity score (CAL-120 [16]): 11.1
drug sensitivity score (DU-4475 [17]): 1.58
drug sensitivity score (Hs578T): 24.7
drug sensitivity score (MDA-MB-436 [18]): 9.72

O=c1[nH]cc(F)c(=O)[nH]1 [Fluorouracil]
drug sensitivity score (BT-549 [1]): 0
drug sensitivity score (MFM-223 [2]): 0
drug sensitivity score (CAL-148 [3]): 0
drug sensitivity score (MCF-10A [4]): 0
drug sensitivity score (MDA-MB-231 [5]): 0
drug sensitivity score (CAL-85-1): 0
drug sensitivity score (MDA-MB-453): 0
drug sensitivity score (HCC1599): 0
drug sensitivity score (BT-474): 0
drug sensitivity score (HCC1143 [6]): 0
drug sensitivity score (CAL-120 [7]): 0
drug sensitivity score (DU-4475 [8]): 0
drug sensitivity score (HDQ-P1): 0
drug sensitivity score (CAL-51): 0
drug sensitivity score (MDA-MB-436 [9]): 0.291
drug sensitivity score (BT-549 [10]): 0
drug sensitivity score (MFM-223 [11]): 0
drug sensitivity score (SK-BR-3): 1.79
drug sensitivity score (CAL-148 [12]): 0
drug sensitivity score (MCF-10A [13]): 0
drug sensitivity score (MDA-MB-231 [14]): 0
drug sensitivity score (HCC1143 [15]): 0
drug sensitivity score (CAL-120 [16]): 0
drug sensitivity score (DU-4475 [17]): 0
drug sensitivity score (Hs578T): 0
drug sensitivity score (MDA-MB-436 [18]): 3.61

Cn1cnc2c(F)c(Nc3ccc(Br)cc3F)c(C(=O)NOCCO)cc21 [MEK-162]
drug sensitivity score (BT-549 [1]): 0
drug sensitivity score (MFM-223 [2]): 3.03
drug sensitivity score (MDA-MB-468): 0
drug sensitivity score (CAL-148 [3]): 1.61
drug sensitivity score (MCF-10A [4]): 0
drug sensitivity score (CAL-85-1): 0
drug sensitivity score (MDA-MB-453): 0
drug sensitivity score (HCC1599): 0
drug sensitivity score (BT-474): 0
drug sensitivity score (HCC1143 [6]): 0
drug sensitivity score (CAL-120 [7]): 0
drug sensitivity score (DU-4475 [8]): 1.92
drug sensitivity score (HDQ-P1): 1.87
drug sensitivity score (CAL-51): 0
drug sensitivity score (MDA-MB-436 [9]): 0
drug sensitivity score (BT-549 [10]): 0
drug sensitivity score (MFM-223 [11]): 0
drug sensitivity score (SK-BR-3): 0
drug sensitivity score (CAL-148 [12]): 0
drug sensitivity score (MCF-10A [13]): 13.3
drug sensitivity score (MDA-MB-231 [14]): 0
drug sensitivity score (HCC1143 [15]): 0
drug sensitivity score (CAL-120 [16]): 0.188
drug sensitivity score (DU-4475 [17]): 12.5
drug sensitivity score (Hs578T): 0
drug sensitivity score (MDA-MB-436 [18]): 0

CC(C)(C)c1cc(NC(=O)Nc2ccc(-c3cn4c(n3)sc3cc(OCCN5CCOCC5)ccc34)cc2)no1 [Quizartinib]
drug sensitivity score (BT-549 [1]): 0
drug sensitivity score (MFM-223 [2]): 0
drug sensitivity score (MDA-MB-468): 0
drug sensitivity score (CAL-148 [3]): 0
drug sensitivity score (MCF-10A [4]): 0
drug sensitivity score (MDA-MB-231 [5]): 0
drug sensitivity score (CAL-85-1): 0
drug sensitivity score (MDA-MB-453): 0
drug sensitivity score (HCC1599): 0
drug sensitivity score (BT-474): 0
drug sensitivity score (HCC1143 [6]): 0
drug sensitivity score (CAL-120 [7]): 0
drug sensitivity score (DU-4475 [8]): 0
drug sensitivity score (HDQ-P1): 0
drug sensitivity score (CAL-51): 0
drug sensitivity score (BT-549 [10]): 0
drug sensitivity score (MFM-223 [11]): 0
drug sensitivity score (SK-BR-3): 0
drug sensitivity score (CAL-148 [12]): 0
drug sensitivity score (MCF-10A [13]): 0
drug sensitivity score (MDA-MB-231 [14]): 0
drug sensitivity score (HCC1143 [15]): 0
drug sensitivity score (CAL-120 [16]): 0
drug sensitivity score (DU-4475 [17]): 0
drug sensitivity score (Hs578T): 0
drug sensitivity score (MDA-MB-436 [18]): 0

CCS(=O)(=O)c1cccc(-c2cc(C(=O)NC3CCN(C)CC3)c(C)c3[nH]c4ncc(C)cc4c23)c1 [TAK-901]
drug sensitivity score (BT-549 [1]): 0.958
drug sensitivity score (MFM-223 [2]): 0
drug sensitivity score (MDA-MB-468): 0
drug sensitivity score (CAL-148 [3]): 0
drug sensitivity score (MCF-10A [4]): 0
drug sensitivity score (MDA-MB-231 [5]): 3.45
drug sensitivity score (CAL-85-1): 0
drug sensitivity score (MDA-MB-453): 0
drug sensitivity score (HCC1599): 0
drug sensitivity score (BT-474): 0
drug sensitivity score (HCC1143 [6]): 0
drug sensitivity score (CAL-120 [7]): 0
drug sensitivity score (DU-4475 [8]): 0
drug sensitivity score (HDQ-P1): 0
drug sensitivity score (MDA-MB-436 [9]): 0
drug sensitivity score (BT-549 [10]): 6.76
drug sensitivity score (MFM-223 [11]): 5.76
drug sensitivity score (SK-BR-3): 0
drug sensitivity score (CAL-148 [12]): 0
drug sensitivity score (MCF-10A [13]): 7.18
drug sensitivity score (MDA-MB-231 [14]): 7.63
drug sensitivity score (HCC1143 [15]): 4.84
drug sensitivity score (CAL-120 [16]): 4.67
drug sensitivity score (DU-4475 [17]): 0
drug sensitivity score (Hs578T): 1.14
drug sensitivity score (MDA-MB-436 [18]): 2.45

COc1cc(Nc2ncc(F)c(Nc3ccc4c(n3)NC(=O)C(C)(C)O4)n2)cc(OC)c1OC [Tamatinib]
drug sensitivity score (BT-549 [1]): 0
drug sensitivity score (MFM-223 [2]): 0
drug sensitivity score (CAL-148 [3]): 0
drug sensitivity score (MCF-10A [4]): 0
drug sensitivity score (MDA-MB-231 [5]): 0
drug sensitivity score (CAL-85-1): 0
drug sensitivity score (MDA-MB-453): 0
drug sensitivity score (HCC1599): 0
drug sensitivity score (BT-474): 0
drug sensitivity score (HCC1143 [6]): 0
drug sensitivity score (CAL-120 [7]): 0
drug sensitivity score (DU-4475 [8]): 0
drug sensitivity score (HDQ-P1): 0
drug sensitivity score (CAL-51): 1.13
drug sensitivity score (MDA-MB-436 [9]): 0
drug sensitivity score (BT-549 [10]): 4.09
drug sensitivity score (MFM-223 [11]): 0
drug sensitivity score (SK-BR-3): 0
drug sensitivity score (CAL-148 [12]): 0
drug sensitivity score (MCF-10A [13]): 0
drug sensitivity score (MDA-MB-231 [14]): 0
drug sensitivity score (HCC1143 [15]): 0
drug sensitivity score (CAL-120 [16]): 0
drug sensitivity score (DU-4475 [17]): 0
drug sensitivity score (Hs578T): 0
drug sensitivity score (MDA-MB-436 [18]): 0
